Data from paper PMC9296036, “A peptide interfering with the dimerization of oncogenic KITENIN protein and its stability suppresses colorectal tumour progression” (Clinical and Translational Medicine, 2022).
Ends that are not written are not given here.

Experiments:
[1] = tested on: CT-26/iRFP/KITENIN cells; test: Transwell cell invasion assay, CT-26/iRFP/KITENIN or CT-26/KITENIN-V5 cells; format: cell-based, mouse; conditions: increasing doses of KDIP, compared with scramble peptide
[2] = target: T1, KITENIN homodimer (Homo sapiens, UniProt Q8TAA9); test: KITENIN homodimerization in Caco2 cells co-expressing KITENIN-V5/Myc (co-immunoprecipitation); format: cell-based
T1 construct: Lysates of 293T cells expressing full‐length KITENIN‐myc; expressed in transfected cells; host or cells: Caco2
T1 sequence (Q8TAA9 1-524): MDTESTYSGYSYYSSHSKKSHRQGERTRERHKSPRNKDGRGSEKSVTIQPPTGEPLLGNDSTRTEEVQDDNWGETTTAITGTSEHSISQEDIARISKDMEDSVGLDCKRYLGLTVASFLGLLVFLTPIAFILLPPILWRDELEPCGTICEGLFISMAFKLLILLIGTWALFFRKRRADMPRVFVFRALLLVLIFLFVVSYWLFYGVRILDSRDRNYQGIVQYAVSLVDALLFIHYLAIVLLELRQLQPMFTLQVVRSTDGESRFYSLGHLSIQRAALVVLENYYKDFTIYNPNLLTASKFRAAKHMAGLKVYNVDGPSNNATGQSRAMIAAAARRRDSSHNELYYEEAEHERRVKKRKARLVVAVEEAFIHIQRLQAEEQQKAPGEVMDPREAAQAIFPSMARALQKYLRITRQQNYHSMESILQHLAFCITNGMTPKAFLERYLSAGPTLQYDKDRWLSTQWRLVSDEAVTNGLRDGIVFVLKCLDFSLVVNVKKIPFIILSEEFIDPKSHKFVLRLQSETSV
Excerpt: Antibodies against the following proteins were obtained from the indicated suppliers: Na^+/K^+ ATPase, GFP and tubulin (Santa Cruz Biotechnology); c‐Jun, p‐c‐Jun, ERK, p‐ERK, c‐MET, p‐c‐MET and GST (Cell Signaling Technology); V5, Myc (MBL); HA and β‐actin (Sigma); KITENIN (Atlas); His and RACK1, LC3, p62, Myo10, and eukaryotic elongation factor 2 (eEF2) (Abcam). They were used with appropriate secondary antibodies (Thermo). For transient transfection analyses, Caco2, HCT116 and 293T cells were transfected with various plasmids and harvested for immunoblot analysis 48 h after transfection. For most assays using stable cell lines, mixed polyclonal cells were used to exclude clonal variation. […]
FIGURE 2 KAI1 C‐terminal interacting tetraspanin (KITENIN) dimerization‐interfering peptide (KDIP) suppresses KITENIN‐induced enhanced cell invasion through the inhibition of the homodimerization of KITENIN. […] After 48 h of treatment, KITENIN transcripts in cells were analysed by the 2^−ΔΔ ^CT method using Q‐PCR. […] Caco2 cells were co‐transfected with KITENIN‐V5/Myc and treated with or without KDIP or scrambled peptide (scr) and were immunoprecipitated with anti‐V5 antibody and detected by indicated antibodies. Numerals indicated a quantification of the MYC bands normalized to the corresponding V5 bands (left panel). […] Numerals indicated a quantification of the bands observed (left panel). […]

YARVRRRGPRRWRLVSDEAV [KDIP] was tested, and the “cell invasion of CT-26/KITENIN-V5 cells (in words)” value [1] was “significantly reduced”, the “inhibition of dimerization and cell invasion caused by KITENIN overexpression, rank among the 7 peptides of the 449-487 region” value ([2]; Caco2 cells co-expressing KITENIN-Myc and KITENIN-V5, co-IP and invasion assay) was “most effective” and the “homodimerization of KITENIN in cells (in words)” value ([2]; Caco2 cells co-transfected with KITENIN-V5/Myc, co-IP) was “reduced”.
